In article PMC12214830, “The human RIF1-Long isoform interacts with BRCA1 to promote recombinational fork repair under DNA replication stress” (Nature Communications, 2025):
“Also recorded” adds a separate entry of the source. Non-standard residues stand in square brackets, D forms with d. No end group written: not given here. pS = N[C@@H](COP(=O)(O)O)C(=O)O

Tests used:
[1] = system: RIF1-BRCA1 proximity in RPE-1 cells; assay: RIF1-BRCA1 proximity ligation assay, RPE-1 cells; format: cell-based, human
Protocol: (§1) Proximity ligation assays were performed using the Duolink In Situ PLA Fluorescence Protocol (Sigma-Aldrich, DUO92101) following the manufacturer’s instruction. Cells were grown on glass coverslips and treated as indicated for specific experiments. Cells were then permeabilized with 0.5% TritonX-100 in PBS for 10 min on ice, and fixed with 3% formaldehyde, 2% sucrose in PBS for 10 min at room temperature (RT). After fixation, coverslips were blocked in 3% BSA in PBS for 1 h at RT and incubated with primary antibodies (anti-RIF1, Bethel laboratories A300-568A, 1:1000 dilution; anti-BRCA1, Santa Cruz Biotechnologies, sc-6954, 1:200 dilution), for 1 h at RT in a humidity chamber. Primary antibodies were then washed off with PLA washing buffer A supplied in the Duolink In Situ PLA kit. Coverslips were next incubated sequentially with PLA Probes (1 h at 37 °C), ligation solution (30 min at 37 °C) and amplification solution (100 min at 37 °C), with washes by washing buffer A in between each step. At the end of incubation, coverslips were washed with washing buffer B supplied in the Duolink In Situ PLA kit. Coverslips were then mounted on glass slides with PLA Mounting medium with DAPI. Images were captured by fluorescence microscopy (Zeiss Axio Imager). PLA foci number in each nucleus were analysed by CellProfiler Software[74] with a custom-made pipeline.
For EdU labelling combined with proximity ligation assay, cells were labelled with 10 µM EdU for 15 min, washed free of EdU and next incubated with medium containing 4 mM HU medium for 4 h. Cells were then permeabilized, fixed and subjected to RIF1-BRCA1 PLA procedures. After all PLA steps, EdU detection was performed following manufacturer’s instructions in the Click-iT EdU Imaging Kit (Invitrogen, C10640).
(§2) For proximity ligation assays and immunofluorescence signal intensity measurements, when comparing between two samples, statistical significance of differences was calculated by Mann-Whitney test for non-parametric distributions using GraphPad Prism software (v.9). When comparing among three or more samples, p values were calculated by Kruskal-Wallis test for non-parametric distributions with Dunn’s multiple comparisons using GraphPad Prism software (v.9). For RIF1 foci formation analysis (Fig. 6B), p values were calculated by two-tailed Student’s t test. For nuclear BRCA1 intensity fold change analyses (Fig. 6C, D), p values were calculated by two-tailed one-sample t test using GraphPad Prism software (v.9). For RAD51 foci formation analyses (Fig. 7B, E and Supplementary Fig. 7B), p values were calculated by chi-square test. For HR Reporter assay analysis (Fig. 7G and Supplementary Fig. 7L), p values were calculated by two-tailed paired Student’s t test. For micronuclei frequency analysis (Fig. 7H), p values were calculated by one-tailed paired Student’s t test. All Student’s t tests were performed with Excel T.TEST function. Chi-square tests were performed with the online Chi-square test calculator at https://www.socscistatistics.com/tests/chisquare2/default2.aspx. Sample number n for all box-and-whisker plots and dot plots are listed in Supplementary Data 1.

RIF1-L phosphoS2265 = assay: Western blot, RIF1-L phosphoS2265, HeLa cells; format: cell-based, human
Protocol: Cells were harvested in 10 mM Tris-HCl pH 7.5, 2 mM EDTA buffer and lysed with laemmli sample buffer (Bio-Rad, 1610737, supplemented with 5% β-mercaptoethanol). Samples were heated at 95 °C for 15 min and centrifuged at 13,000 × g for 15 min. Protein concentrations were measured by RC DC Protein Assay (Bio-Rad, 5000122). Equal amounts of total proteins for each sample were separated in Mini-PROTEAN TGX Stain-free Precast Gels (Bio-Rad) by SDS-PAGE. Gels were at this stage imaged with the ChemiDoc Touch Imaging System (Bio-Rad) using the ‘Protein gel – Stain free’ module to obtain stain-free gel images. Proteins on gel were transferred to PVDF membranes (Bio-Rad, 1704274) using the Trans-Blot Turbo Blotting System (Bio-Rad). Membranes were blocked in 3% BSA in TBS-T (1x TBS supplemented with 0.1% Tween-20) at RT for 1 h, followed by incubation with primary antibodies overnight at 4 °C. Membranes were washed with TBS-T and then incubated with secondary antibodies for 1 h at RT. The blots were developed with Clarity ECL reagents (Bio-Rad, 1705060) and imaged with the ChemiDoc Touch Imaging System (Bio-Rad). Primary antibodies used for western blotting include anti-RIF1 (Bethyl Laboratories, A300-568A. 1:5000); anti-RIF1-L-Phospho-S2265 (amsbio, custom. 1:5000); anti-BRCA1 (D-9) (Santa Cruz Biotechnology, sc-6954. 1:1000); anti-BARD1 (Bethyl Laboratories, A300-263A. 1:1000); anti-53BP1 (Novus Biologicals, NB100-94. 1:5000); anti-PP1α (G4) (Santa Cruz Biotechnology, sc-271762. 1:1000); anti-Tubulin (YOL1/34) (Santa Cruz Biotechnology, sc-53030. 1:4000); anti-FLAG (M2) (Sigma-Aldrich, F1804. 1:2000); anti-GFP (Chromotek, 3h9. 1:2000); anti-RFP (Chromotek, 5f8. 1:2000). Uncropped and unprocessed Western Blot images are provided in the Source Data file.

[2] = system: RIF1-BRCA1 proximity in HeLa cells; assay: RIF1-BRCA1 proximity ligation assay, HeLa cells; format: cell-based, human; conditions: HeLa +RIF1-L
Protocol: as §1, §2

micronuclei = micronuclei frequency, HeLa cells; format: cell-based, human; conditions: Fig.7H
Protocol: as §2

BRCA1 nuclear signal = assay: BRCA1 nuclear immunofluorescence intensity, HeLa cells; format: cell-based, human
Protocol: Cells were grown on glass coverslips and treated as desired. Cells were then permeabilized with 0.5% TritonX-100 in PBS for 7 min on ice, and fixed with 4% w/v formaldehyde solution (Sigma HT5012) for 10 min at room temperature (RT). After fixation, coverslips were blocked with 3% BSA in PBS (RT, 1 h), incubated with primary antibodies (RT, 2 h), washed with PBS three times and incubated with secondary antibodies (RT, 1 h). Primary antibodies used for immunofluorescence include anti-γH2A.X (20E3) (Cell Signalling Technology, 9718. 1:500); anti-RPA32/RPA2 (9H8) (Abcam, ab2175. 1:200); anti-RAD51 (H92) (Santa Cruz Biotechnology, sc-8349. 1:100); anti-BrdU (B44) (BD Biosciences, 347580. 1:100); Coverslips were then mounted on glass slides with mounting medium with DAPI. Images were captured by either standard (Zeiss Axio Imager) or confocal (Zeiss LSM-880) microscopy. Fluorescence signal intensities within each nucleus were analysed by CellProfiler software with custom-made pipelines. […]
as §2, with “All Student’s t tests were performed with Excel T.TEST function. Chi-square tests were performed with the online Chi-square test calculator at https://www.socscistatistics.com/tests/chisquare2/default2.aspx. Sample number n for all box-and-whisker plots and dot plots are listed in Supplementary Data 1.” left out

[3] = target: BRCA1 C-terminal tandem BRCT domains (UniProt P38398); assay: fluorescence polarisation titration; conditions: reference: pS2265 peptide, untreated; sites S2265
BRCA1-BRCT domain = assay: X-ray crystal structure of peptide with BRCA1-BRCT (PDB 8RS8); format: binding, human
Protocol: For crystallographic studies, the N-terminal HIS-SUMO tag was removed from the His6-SUMO-BRCA1-BRCT2 by incubation with GST-3C protease (in house) for 12 h at 4 °C. A Superdex 75 16/60 size exclusion column (GE Healthcare) was used to purify the BRCT2 domains to homogeneity in 10 mM HEPES pH 7.5, 200 mM NaCl, 0.5 mM TCEP.
An unlabelled RIF1 pS2265 peptide (SPGSR(pS)PKFKS) (Peptide Protein Research Ltd, Bishops Waltham, UK) was mixed with the pure BRCA1-BRCT2 domains at a five molar excess prior to concentration to 15 mg/ml for use in crystallisation trials. Crystals grew in condition MORPHEUS E2 (55.5 mM MES, 44.5 mM Imidazole, 120 mM Diethylene glycol, 120 mM Triethylene-glycol, 120 mM Tetraethylene glycol, 120 mM Pentaethylene glycol, 20% (v/v) Ethylene glycol, 10% (w/v) PEG 8000) (Molecular Dimensions) and were looped before flash freezing in liquid nitrogen. Data were collected on beamline I04-1 at the Diamond Synchrotron Lightsource and the structure was determined using PHASER[70] to perform molecular replacement with PDB 4IGK as a search model before refinement using the PHENIX software package. Figures were produced using PyMOL v2.2.2.

[4] = Chk1i (PF-477736) 1 µM 24 h + HU 4 mM 24 h
[5] = Fig 4F, Chk1i (PF-477736) 1 µM 24 h + HU 4 mM 24 h
[6] = Fig S4G (repeat), Chk1i (PF-477736) 1µM + HU 4mM 24hr
[7] = ATRi (VE-821) 1 µM 24 h + HU 4 mM 24 h
[8] = Fig 4F, ATRi (VE-821) 1 µM 24 h + HU 4 mM 24 h
[9] = Fig S4G (repeat), ATRi (VE-821) 1µM + HU 4mM 24hr
[10] = Fig S4H, ATRi (VE-821) 1µM + HU 4mM 24hr

Cn1cc(-c2[nH]c3cc(NC(=O)[C@H](N)C4CCCCC4)cc4c3c2C=NNC4=O)cn1 [PF-477736]
RIF1-BRCA1 PLA foci formation [1, 4]: abolished PLA foci formation
RIF1-BRCA1 PLA foci per nucleus, mean [1, 5]: 0.156
RIF1-BRCA1 PLA foci per nucleus, median [1, 5]: 0
RIF1-BRCA1 PLA foci per nucleus, mean [1, 6]: 0.316
RIF1-BRCA1 PLA foci per nucleus, median [1, 6]: 0
HU-induced reduction of phosphoS2265 signal (RIF1-L phosphoS2265; [4]): partially reversed by Chk1 inhibition

CS(=O)(=O)c1ccc(-c2cnc(N)c(C(=O)Nc3ccccc3)n2)cc1 [VE-821]
RIF1-BRCA1 proximity signal [1, 7]: significantly lowered the RIF1-BRCA1 proximity signal
RIF1-BRCA1 PLA foci per nucleus, mean [1, 8]: 1.672
RIF1-BRCA1 PLA foci per nucleus, median [1, 8]: 1
RIF1-BRCA1 PLA foci per nucleus, mean [1, 9]: 1.661
RIF1-BRCA1 PLA foci per nucleus, median [1, 9]: 1
HU-induced reduction of phosphoS2265 signal (RIF1-L phosphoS2265; [7]): reversed by simultaneous ATR inhibition
RIF1-BRCA1 PLA foci per nucleus, mean [2, 10]: 13.09
RIF1-BRCA1 PLA foci per nucleus, median [2, 10]: 12
RIF1-BRCA1 PLA [2, 7]: also reduced RIF1-BRCA1 PLA

RIF1-L
Micronuclei per 100 (micronuclei; HU, experiment 14Apr2024): 7.605
Micronuclei per 100 (micronuclei; HeLa RIF1 KO + GFP-RIF1 derivative cells, HU, experiment 07Jun2024): 5.84
Micronuclei per 100 (micronuclei; HeLa RIF1 KO + GFP-RIF1 derivative cells, unt, experiment 07Jun2024): 3.60
Micronuclei per 100 (micronuclei; unt, experiment 14Apr2024): 3.159
BRCA1 nuclear signal mean intensity (BRCA1 nuclear signal; Exp 1): 12.65
BRCA1 nuclear signal mean intensity (BRCA1 nuclear signal; Exp 2): 11.6
BRCA1 nuclear signal mean intensity (BRCA1 nuclear signal; Exp 3): 10.09

RIF1-Long (RIF1-L) (from UniProt Q5UIP0) λ phosphatase treated peptide
binding against the reference [3]: lost

SPGSR[pS]PKFKS [RIF1-L phospho-peptide, unlabelled RIF1 pS2265 peptide used for crystallography]
binding mode in crystal (BRCA1-BRCT domain; MORPHEUS E2): fits within the BRCT pocket of BRCA1 as expected; also recorded: positively charged amino acids K^2267 and K^2269 of RIF1-L lie adjacent to the negatively charged E^1698 BRCA1 residue
binding mode in crystal (BRCA1-BRCT domain; MORPHEUS E2, listed as RIF1-L peptide): found in the canonical phosphate binding pocket of the BRCA1 BRCTs
